“Also recorded” adds a separate entry of the source. Where a SMILES comes first, the peptide text is derived from it. [ ]: non-standard residue; d: D form. Phe(3,4-F2) = N[C@@H](Cc1ccc(F)c(F)c1)C(=O)O; Ala(4-thiazolyl) = N[C@@H](Cc1cscn1)C(=O)O; Phe(4-NH2) = Nc1ccc(C[C@H](N)C(=O)O)cc1; Met(O2) = CS(=O)(=O)CC[C@H](N)C(=O)O; Ala(cPr) = N[C@@H](CC1CC1)C(=O)O; Cha = N[C@@H](CC1CCCCC1)C(=O)O; β3hS = N[C@@H](CO)CC(=O)O; Orn = NCCC[C@H](N)C(=O)O
Experiments:
ACE2 [1] = target: T1, ACE2 (Homo sapiens, UniProt Q9BYF1); experiment: Bio-layer interferometry (BLI) binding of immobilized biotinylated peptides to ACE2; settings: 500 nM of ACE2
T1 sequence (Q9BYF1 18-740 limits assumed): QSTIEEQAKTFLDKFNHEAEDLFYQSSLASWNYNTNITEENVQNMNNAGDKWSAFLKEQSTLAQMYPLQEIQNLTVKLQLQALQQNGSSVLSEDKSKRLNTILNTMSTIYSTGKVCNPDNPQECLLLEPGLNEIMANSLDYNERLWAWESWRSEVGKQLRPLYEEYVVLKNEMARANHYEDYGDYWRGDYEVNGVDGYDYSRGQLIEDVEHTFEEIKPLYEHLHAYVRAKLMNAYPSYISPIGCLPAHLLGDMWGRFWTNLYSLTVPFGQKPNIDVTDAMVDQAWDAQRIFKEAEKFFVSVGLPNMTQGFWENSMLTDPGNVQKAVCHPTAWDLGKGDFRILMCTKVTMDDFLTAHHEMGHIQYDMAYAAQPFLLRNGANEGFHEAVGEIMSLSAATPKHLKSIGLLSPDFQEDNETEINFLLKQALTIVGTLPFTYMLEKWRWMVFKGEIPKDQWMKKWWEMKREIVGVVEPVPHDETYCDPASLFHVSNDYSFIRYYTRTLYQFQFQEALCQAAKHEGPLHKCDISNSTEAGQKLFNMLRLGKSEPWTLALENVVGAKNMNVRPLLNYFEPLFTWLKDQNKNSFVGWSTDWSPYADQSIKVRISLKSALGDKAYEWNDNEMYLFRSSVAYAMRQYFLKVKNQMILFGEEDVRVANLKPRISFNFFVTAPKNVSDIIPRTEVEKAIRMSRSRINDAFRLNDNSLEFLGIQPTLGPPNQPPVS
Procedure: (§1) Peptide binding validation was carried out using the ForteBio Octet RED96 system. The chamber temperature was kept constant at 30 °C with a plate agitation speed at 1000 rpm. Briefly, streptavidin (SA)-coated biosensor tips were dipped into 200 μL of 1.0–2.0 μM biotinylated peptide solution (in a kinetic buffer (K.B.): 1 × PBS with 0.1% BSA and 0.02% Tween-20) for peptides immobilization. Once loaded with peptides, the tips were then moved into solutions containing various concentrations (1000, 500, 250, 125, and 62.5 nM) of recombinant ACE2 protein (purchased from Sino Biological, Catalog number 10108-H08H) in the K.B. to obtain the association curve. After the 180 s association step, the tips were moved back into the K.B. to obtain the dissociation curve. Buffer-only and protein-only conditions (concentration at 1000 nM) were used as references for background subtraction. The association and dissociation curves were fitted with the ForteBio Biosystems Data Analysis Software under 5 experimental conditions (n = 5, global fitting algorithm, binding model 1:1) to calculate the apparent dissociation constant (KD).
Supplementary Note 4: Binding affinity measurements
4.1 BLI raw binding data of noncanonical peptides […]
affinity was reported using the kinetic fitting results ( KD is calculated by divide the […]
off rate by on rate). […] The ACE2
(§2) (1 picture or pasted object on this page, not shown here)
4.2 BLI raw binding data of canonical peptides
Supplementary Fig. 20. The BLI binding curve fitting (red lines) of ABP C1-C4 and ABP C7-C9 from Library 1 AS-MS against ACE2.
ACE2 concentration was 250 nM.

12ca5 = experiment: BLI binding to an unrelated (off-target) protein
Procedure: as §1, with “(KD). […]” for “(KD).”
4.4 The binding of ABP noncanonical peptides to an unrelated protein
N6, and N8 to an unrelated protein, 12ca5, measured by BLI at concentration
as §2

ACE2 [2] = target: T1, ACE2; experiment: ACE2 pulldown from human serum (SDS-PAGE); format: binding; settings: biotinylated peptide on streptavidin magnetic beads, ACE2 in 5% normal human serum, 1.0 h 4 °C, 6 M urea elution
Procedure: After removing the supernatant and washing off the unbound fraction, the bound material was eluted with a high concentration of urea and analyzed using the sodium dodecyl sulfate–polyacrylamide gel electrophoresis (SDS-PAGE). […] Bound ACE2 was eluted for subsequent analysis. b The SDS-PAGE image with samples showing from left to right lanes: (1) molecular weight standard; (2) purified ACE2 protein (1.5 µg) as a loading control; (3) normal human serum as a control; (4) normal human serum mixed with ACE2 (1.5 µg); (5) elution of the bound fraction from the magnetic beads. NHS, Normal Human Serum (5%). Following a previous protocol, streptavidin-coated magnetic beads (100 µL, at 10 mg/mL) were pre-washed with blocking buffer (1 × PBS with 0.05% Tween-20, pH 7.4) and captured on a magnetic separation rack. The beads were then re-suspended in 1.0 mL of the same blocking buffer. […] After 30 min of incubation at 4 °C, the supernatant was removed and the beads were washed with 1 × PBS (3 × 1.0 mL) before incubation with the protein mixture. Soluble ACE2 (5 µL, 0.62 mg/mL) was mixed with 50 µL normal human serum in 1 × PBS (pH 7.4) to a final volume of 1.0 mL. The magnetic beads displaying immobilized ABP N1 were then added into the protein complex. […]

ACE2 [3] = target: T1, ACE2; experiment: ELISA detection of ACE2 coated from 1 x PBS; format: binding; settings: ACE2 in 1 x PBS 10 pM-100 nM coated; biotinylated peptide 100 nM; streptavidin-HRP, TMB, A450
Procedure: (§3) However, we observed a decreased detection sensitivity presumably due to the decreased amount of ACE2 being immobilized on the plate with many other serum proteins present. […] The plate was incubated with ABP N1 or control peptide, followed by streptavidin-HRP and TMB substrate. Absorbance was measured at 450 nm. The experiment was performed in technical triplicates (n = 3). Each data point, the mean signal as a bar, and error bars from experimental standard deviation, and statistical significance calculated with the unpaired Student’s t-test are shown. A serial dilution of soluble ACE2 was coated onto an ELISA plate (96-well format) overnight at 4 °C. The next day, the plate was blocked with 5% BSA in 1 × PBS supplement with 0.05% Tween-20 (PBST, pH 7.4) for 2–3 h at room temperature. […] Control groups are biotinylated peptide ABP N8 and PBST alone. The supernatant was then removed, and the wells were washed with PBST (3× 200 µL). Streptavidin-HRP conjugate in PBST (0.25 µg/mL, 100 µL) was added to each well and incubated for 30 min at room temperature. The plate was PBST-washed again (3 × 200 µL) before color development with 100 µL 1-Step™ Ultra TMB-ELISA Substrate Solution (Thermo Fisher, Catalog number 34028). After 10 min, the reaction was quenched with 2.0 M sulfuric acid (100 µL). Finally, the absorbance at 450 nm was measured on a microplate reader (BioTek) for all treated wells. […]

ACE2 [4] = target: T1, ACE2; experiment: ELISA detection of ACE2 coated from a mixture with normal human serum; format: binding; settings: plate coated with normal human serum and exogenous ACE2; biotinylated peptide 100 nM; streptavidin-HRP, TMB, A450
Procedure: as §3

ACE2 [5] = target: T1, ACE2; experiment: BLI binding competition of known ACE2 binders (AngII, MLN-4760) on the ABP-ACE2 interaction; design: Soluble ACE2 (5 µL, 0.62 mg/mL) was mixed with 50 µL normal human serum; settings: immobilized biotinylated peptide

CS(=O)(=O)CC[C@H](NC(=O)[C@H](CC1CCCCC1)NC(=O)[C@H](Cc1cscn1)NC(=O)C[C@H](CO)NC(=O)[C@H](CCCN)NC(=O)[C@H](CCC(N)=O)NC(=O)[C@H](CCCN)NC(=O)[C@H](Cc1ccc(F)c(F)c1)NC(=O)[C@H](Cc1cscn1)NC(=O)[C@@H](N)CC1CC1)C(=O)NCC(=O)N[C@@H](Cc1ccc(N)cc1)C(=O)N[C@@H](CCCCN)C(N)=O [ABP N1] (H-[Ala(cPr)][Ala(4-thiazolyl)][Phe(3,4-F2)][Orn]Q[Orn][β3hS][Ala(4-thiazolyl)][Cha][Met(O2)]G[Phe(4-NH2)]K-NH2)
BLI response signal (ACE2 [1]): ~ 1.3 nm
higher signal for ACE2 than for 12ca5 (12ca5; 500 nM ACE2 versus 500 nM 12ca5, BLI): ~ 5 fold
BLI response signal (12ca5; 500 nM of the off-target protein (12ca5)): 0.25 nm
binding to unrelated protein 12ca5 (in words) (12ca5; BLI, 12ca5 at 500 nM): minimal binding; also recorded: No apparent binding
pull-down of ACE2 from human serum (ACE2 [2]): selective enrichment of ACE2 protein
ELISA detection of ACE2 (in words) (ACE2 [3]): picomolar concentration of ACE2 was detected
ELISA detection of ACE2 in human serum (in words) (ACE2 [4]): dose-dependent ACE2 detection
inhibition of ABP binding to ACE2 by AngII (ACE2 [5]; 500 nM ACE2 + 5 uM AngII (10-fold excess)): not inhibited
inhibition of ABP binding to ACE2 by MLN-4760 (ACE2 [5]; 500 nM ACE2 + 5 uM MLN-4760 (10-fold excess)): partially inhibited

Source: paper PMC9814530, “Rapid de novo discovery of peptidomimetic affinity reagents for human angiotensin converting enzyme 2” (Communications Chemistry, 2022)
